Results taken from US6486158B1, “[4,5]-fused-3,6-disubstituted-pyridazines with sulfur-containing substituents in position three for the treatment of neoplasia” (Cell Pathways, Inc., priority 1998, dated 2002).

What was measured:
[1] = molecular target: T1, purified cyclooxygenase Type 1 (COX I) (Ovis aries, UniProt P05979); experiment: Cyclooxygenase (COX I) inhibition, purified enzyme; format: biochemical; details: 100 μM compound, arachidonic acid 100 μM, 2.0 min at 37° C., COX I from ram seminal vesicles
T1 construct: The COX I was purified from ram seminal vesicles; from tissue; host or cells: ram seminal vesicles
T1 sequence (P05979 25-600): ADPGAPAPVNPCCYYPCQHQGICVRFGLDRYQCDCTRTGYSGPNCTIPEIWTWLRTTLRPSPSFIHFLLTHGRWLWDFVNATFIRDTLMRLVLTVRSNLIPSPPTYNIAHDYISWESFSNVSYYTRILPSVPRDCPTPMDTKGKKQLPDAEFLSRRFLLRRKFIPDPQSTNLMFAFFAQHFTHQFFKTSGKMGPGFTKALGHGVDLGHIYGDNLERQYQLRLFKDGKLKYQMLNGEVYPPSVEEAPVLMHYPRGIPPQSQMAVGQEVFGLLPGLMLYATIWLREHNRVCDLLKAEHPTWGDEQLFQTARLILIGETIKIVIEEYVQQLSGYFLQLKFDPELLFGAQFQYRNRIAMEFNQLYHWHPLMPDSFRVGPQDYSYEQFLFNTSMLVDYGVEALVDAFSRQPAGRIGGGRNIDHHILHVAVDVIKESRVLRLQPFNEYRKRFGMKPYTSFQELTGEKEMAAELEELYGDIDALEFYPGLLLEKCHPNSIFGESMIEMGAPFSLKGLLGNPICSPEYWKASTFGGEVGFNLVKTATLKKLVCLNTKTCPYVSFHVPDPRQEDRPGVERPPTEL
Description: COX I catalyzes the formation of prostaglandins and thromboxane by the oxidative metabolism of arachidonic acid. Compounds of this invention, as well as a positive control, (sulindac sulfide) were evaluated to determine whether they inhibited purified cyclooxygenase Type 1 (see Table 3 below).
The COX I was purified from ram seminal vesicles, as described by Boopathy, R. and Balasubramanian, J. 239:371-377, 1988. COX I activity was assayed as described by Evans, A. T. et al., “Actions of Cannabis Constituents on Enzymes Of Arachidonate Metabolism Anti-Inflammatory Potential,” Biochem. Pharmacol., 36:2035-2037, 1987. Purified COX I was incubated with arachidonic acid (100 μM) for 2.0 min at 37° C. in the presence or absence of test compounds. The assay was terminated by the addition of TCA, and COX I activity was determined by absorbance at […].

[2] = tested on: human colon carcinoma cell line, SW-480; experiment: Sulforhodamine B (SRB) tumor cell growth inhibition assay; format: cell-based; details: SW-480 cells, six days continuous exposure; for inhibition at 100 µM: Homo sapiens, SW480, 144 h
Description: The compounds of this invention were assayed for their growth inhibitory activity on the human colon carcinoma cell line, SW-480 obtained from ATCC (Rockville, Md.), to ascertain the degree of growth inhibition (Skehan et al., J. Natl. Cancer Instit. 82:1107-1112, 1990). Growth inhibition of this cell line is indicative of a benefit on precancerous lesions and neoplasms. The cell line and growth assay employed for such experiments are well characterized, and are used to evaluate the anti-neoplastic properties of compounds (Piazza, Cancer Research Vol. 57, pp. 2452-2459, 1997). The assay is used by the United States National Cancer Institute in its screening program for new anti-cancer drugs.
Drug stock solutions were made in 100% DMSO and were then diluted with RPMI media for cell culture testing. All drug solutions were prepared fresh on the day of testing. The cultured cells were obtained at passage #99 and grown in RPMI media supplemented with 5% fetal calf serum, and 2 mM glutamine, […] penicillin, 100 U/ml streptomycin, and 0.25 μg/ml amphotericin. The cultures were maintained in a humidified atmosphere of 95% air and 5% CO2 at 37° C. The cultures were passaged at preconfluent densities using a solution of 0.05% trypsin and 0.53 mM EDTA. Cells were plated at 1000 cells/well for 96 well flat-bottom microtiter plates.
Tumor cell growth inhibition was assessed using the Sulforhodamine B (SRB) protein binding assay. In this assay, tumor cells were plated in 96-well plates and treated with drug-containing media for six days (continuous exposure). For each plate, 6 wells were designated as no treatment controls, six wells as vehicle (0.1% DMSO) controls, and the remaining wells for drug dilutions with three wells per drug concentration. At the end of the exposure period, the cells were fixed and stained with sulforhodamine B, a protein binding dye. The dye was then solubilized, and the optical density of the resulting solution was determined on a 96-well plate reader. The mean optical density of the treated wells was then divided by the mean optical density in the control wells (6 wells of each) to determine the effect of the drug on the cells. Dye intensity is proportional to the number of cells or amount of protein per well. The resultant “percent inhibition” values, which then represents the degree of growth inhibition, for the indicated compounds from the Examples are tabulated in Table 1.
For one compound of this invention, an IC50 value was determined. An IC50 value is equivalent to the concentration of compound needed to inhibit tumor cell growth by 50%. The IC50 value was obtained graphically by plotting and connecting the mean growth inhibition values for each drug concentration tested. The experiment included three wells per drug concentration. Concentration was plotted on a log scale on the X-axis.

SMILES | inhibition at 100 µM [1] [%] | melting point [°C] | inhibition at 100 µM [2] [%] | COX I % Inhibition (100 μM) [1] [%] | % Growth Inhibition at 100 μM [2] [%]
CSc1nnc(-c2ccccc2)c2ccccc12 [Example 3, 1-Methylthio-4-Phenylphthalazine] | 73 | 147 | < 50 | – | –
c1ccc(-c2nnc(SCc3ccc4ccccc4c3)c3ccccc23)cc1 [Example 20, 1-(2′-Naphthylmethylthio)-4-Phenylphthalazine] | – | – | – | <25 | <50
COC(=O)Cc1nnc(Sc2ccccc2)c2ccccc12 [Example 19, Methyl-2-(4-Phenylthiophthalazinyl)acetate] | – | – | – | <25 | 61
Fc1ccc(CSc2nnc(-c3ccccc3)c3ccccc23)cc1 [Example 11, 1-(4-Fluorobenzylthio)-4-Phenylphthalazine] | < 25 | 104 | 76 | – | –
Clc1cccc(CSc2nnc(-c3ccccc3)c3ccccc23)c1 [Example 4, 1-(3-Chlorobenzylthio)-4-Phenylphthalazine] | < 25 | 85 | 81 | – | –
CC(C)(C)OC(=O)CSc1nnc(-c2ccccc2)c2ccccc12 [Example 21, 1-(t-Butyl 2′Mercaptoacetate)-4-Phenylphthalazine] | – | – | – | – | 51
c1ccc(CSc2nnc(-c3ccccc3)c3ccccc23)cc1 [Example 1, 1-Benzylthio-4-Phenylphthalazine] | 30 | 92 | 85 | – | –
C=CCSc1nnc(-c2ccccc2)c2ccccc12 [Example 2, 1-(2-Propenylthio)-4-Phenylphthalazine] | 62 | 83 | 87 | – | –

Second part, led by results:

inhibition at 100 µM [1] [%] | melting point [°C] | SMILES | inhibition at 100 µM [2] [%] | COX I % Inhibition (100 μM) [1] [%] | % Growth Inhibition at 100 μM [2] [%]
< 25 | – | Clc1cccc(CSc2nnc(-c3ccccn3)c3ccccc23)c1 [Example 22, 1-(3-Chlorobenzylthio)-4-(2-Pyridyl)-Phthalazine] | 88 | – | –
– | 93 | CCSc1nnc(-c2ccccc2)c2ccccc12 [Example 35, 1-Ethylthio-4-Phenylphthalazine] | – | – | –
81 | – | O=S(=O)(Cc1ccccc1)c1nnc(-c2ccccc2)c2ccccc12 [Example 18, 1-(Benzylsulfonyl)-4-Phenylphthalazine] | – | – | –
97 | – | CSc1ccc(/C=C2/C(C)=C(CC(=O)O)c3cc(F)ccc32)cc1 [Sulindac sulfide, sulindac sulfide, reference compound] | – | – | –
